Data published in patent US12460003B2, “Methods of assessing and treating cancer in subjects having dysregulated lymphatic systems” (Ensemble Group Holdings, priority 2016, dated 2025).

How the values were obtained:
[1] = tested on: LLC lung cancer or 4T1 breast cancer cells; experiment: Example 2: syngeneic tumor models treated with lymphatic system modulator plus immunotherapy or chemotherapy; assay type: in vivo, syngeneic mice (C57 Black 6 and BALB/c)
Experimental: One to two million cells of either LLC lung cancer or 4T1 breast cancer cells are subcutaneously implanted into syngeneic mice (C57 Black 6 and BALB/c). Animals are treated with vehicle alone as a control, with chemotherapy (cisplatin), or with immunotherapy alone (anti-PD-1 mAb). Animals are imaged by intravascular ultrasound (IVUS), CT/PET, or MRI, for growth of the primary tumor and for metastatic spread of the tumor. Blood samples are obtained for a multiplexed measure of serum biomarkers of lymphatic biology function (Millipore mouse 24 plex; MAGPMAG-24K). Around Study Day 10, animals are injected with 1-1.5 million more tumor cells into the tail vein. Between Study Days 13 and 16, the primary tumor is surgically resected, and animals resume treatment. […]
Animals are imaged weekly, and blood for serum multiplex measurements is continued and evaluated. Survival studies and analyses are performed, and animals are evaluated based on overall survival, progression-free survival, objective and durable response, and serum biomarker measurements. Lung tissue, lymphatics, and regional lymph nodes and tumor tissue are concurrently evaluated upon animal sacrifice for functional immune evaluation and analysis of the tumor and disease analysis.

[2] = tested on: 4T1 and LLC tumor cells, also transfected to overexpress VEGF-C; experiment: Example 3: syngeneic 4T1 and LLC models incl. VEGF-C overexpressing tumor cells, lymphangitic carcinomatosis; assay type: in vivo, syngeneic mice; settings: preventative treatment, alone or with an immune modulator or chemotherapy
Experimental: The experiments from Example 2 are performed using the same animal models (4T1 and LLC) in syngeneic mice. Another group of tumor cells is transfected to overexpress VEGF-C to stimulate severe lymphatic dysregulation. Overexpression of VEGF C by tumor cells can result in a severe lymphatic dysregulation and an extremely aggressive lymphangitic carcinomatosis, which is a subset of the groups of dysregulated lymphatic disorders resistant to immunotherapy (Example 1). […] In this experiment, it is evaluated whether advanced tumors with inherent lymphatic dysregulation or with exaggerated lymphatic dysregulation driven by VEGF C hyperexpression can be treated and whether treatment can prevent mice with cancers from progressing to severe lymphangitic carcinomatosis.
Treatment groups include (1) anti-PD-1 mAb alone; (2) anti-PD-1-mAb plus lymphatic system modulator (anti-VEGF C or anti-VEGF R3 mAb, or SAR131675); (3) cisplatin alone; (4) lymphatic system modulator (anti-VEGF C or anti-VEGF R3 mAb, or SAR131675) plus cisplatin; and (5) negative control (no treatment).

Structure (SMILES)	response of animals to single agent ([1]; agent alone)	immunological function ([1]; concurrent with immune modulator (checkpoint inhibitor) or chemotherapy (cisplatin))	objective and functional outcomes [2]	progression to lymphangitic carcinomatosis [2]
N.N.[Cl][Pt][Cl] [cisplatin]	no to marginal response	–	–	–
CCn1c(N)c(C(=O)NC)c(=O)c2ccc(C#C[C@@](C)(O)COC)nc21 [SAR131675]	–	functional immunological improvements	significantly improves	no mouse progresses
